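All cell lines were grown in 96-well plates and treated with compound for 48 hours. At the GI50, growth is halved.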 Activity calls are given as the source filed them. Rule as the data show it: active = GI50 up to about 1.1 µM and inactive = higher.
Columns and labels:
Assay in all cases: inhibition of tumour cell growth, NCI panel, 48 h
CCRF-CEM = tested on: CCRF-CEM
OVCAR-5 = tested on: OVCAR-5
M14 = tested on: M14
HT-29 = tested on: HT-29
HOP-92 = tested on: HOP-92
SK-OV-3 = tested on: SK-OV-3
UO-31 = tested on: UO-31
SK-MEL-2 = tested on: SK-MEL-2
PC-3 = tested on: PC-3
ACHN = tested on: ACHN
CAKI-1 = tested on: CAKI-1
MCF7 = tested on: MCF7
NCI-H460 = tested on: NCI-H460
SK-MEL-5 = tested on: SK-MEL-5
SF-295 = tested on: SF-295
T47D = tested on: T47D
HCC 2998 = tested on: HCC 2998
LOX IMVI = tested on: LOX IMVI
RPMI-8226 = tested on: RPMI-8226

Compound | GI50 (CCRF-CEM) | GI50 (OVCAR-5) | GI50 (M14) | GI50 (HT-29) | GI50 (HOP-92) | GI50 (SK-OV-3) | GI50 (UO-31) | GI50 (SK-MEL-2) | GI50 (PC-3) | GI50 (ACHN) | GI50 (CAKI-1) | GI50 (MCF7) | GI50 (NCI-H460) | GI50 (SK-MEL-5) | GI50 (SF-295) | GI50 (T47D) | GI50 (HCC 2998) | GI50 (LOX IMVI) | GI50 (RPMI-8226)
C[N+](C)(CCNc1ccc(NCC[N+](C)(C)Cc2ccc([N+](=O)[O-])cc2)c2c1C(=O)c1ccccc1C2=O)Cc1ccc([N+](=O)[O-])cc1 | > 100 µM (inactive) | > 100 µM (inactive) | > 100 µM (inactive) | > 100 µM (inactive) | > 100 µM (inactive) | > 100 µM (inactive) | > 100 µM (inactive) | > 100 µM (inactive) | > 100 µM (inactive) | > 100 µM (inactive) | > 100 µM (inactive) | > 100 µM (inactive) | > 100 µM (inactive) | > 100 µM (inactive) | > 100 µM (inactive) | > 100 µM (inactive) | > 100 µM (inactive) | > 100 µM (inactive) | 
FC(F)(F)c1cc(N(C2c3ccccc3C=Cc3ccccc32)P(Cl)Cl)cc(C(F)(F)F)c1 | 24 µM (inactive) | 20 µM (inactive) | 22.8 µM (inactive) | 24.5 µM (inactive) | 15.6 µM (inactive) | 25.4 µM (inactive) | 17.6 µM (inactive) | 18.7 µM (inactive) | 22.7 µM (inactive) | 17.5 µM (inactive) | 21.9 µM (inactive) | 20.7 µM (inactive) |  | 18.1 µM (inactive) | 19 µM (inactive) | 17.9 µM (inactive) |  | 18.5 µM (inactive) | 18 µM (inactive)
COc1ccc(-c2[nH]c(=O)n(C3OC(CO)C(O)C(O)C3O)c(=O)c2C#N)cc1 (stereo not drawn) | > 100 µM (inactive) | > 100 µM (inactive) | > 100 µM (inactive) | > 100 µM (inactive) | > 100 µM (inactive) | > 100 µM (inactive) | > 100 µM (inactive) | > 100 µM (inactive) | > 100 µM (inactive) | > 100 µM (inactive) | > 100 µM (inactive) | > 100 µM (inactive) | > 100 µM (inactive) | > 100 µM (inactive) | > 100 µM (inactive) | > 100 µM (inactive) | > 100 µM (inactive) |  | > 100 µM (inactive)
CC(=O)c1csc2c1C(=O)c1scc(C(C)=O)c1C2=O | 0.5 µM (active) | 1.98 µM (inactive) | 1.63 µM (inactive) | 2.28 µM (inactive) | 2 µM (inactive) | 2.22 µM (inactive) | 2 µM (inactive) | 1.89 µM (inactive) | 2.84 µM (inactive) | 1.68 µM (inactive) | 2.22 µM (inactive) | 1.38 µM (inactive) | 1.03 µM (active) | 1.44 µM (inactive) | 1.66 µM (inactive) | 0.323 µM (active) |  | 1.41 µM (inactive) | 0.944 µM (active)
Cc1c(CCN2CCOCC2)c(N2CCOCC2)n2c(nc3ccccc32)c1C#N | > 10 µM (inactive) | > 10 µM (inactive) | > 10 µM (inactive) | > 10 µM (inactive) | > 10 µM (inactive) | > 10 µM (inactive) | > 10 µM (inactive) |  | > 10 µM (inactive) | > 10 µM (inactive) | > 10 µM (inactive) | > 10 µM (inactive) | > 10 µM (inactive) | > 10 µM (inactive) | > 10 µM (inactive) | > 10 µM (inactive) |  | > 10 µM (inactive) | > 10 µM (inactive)

— ChEMBL document CHEMBL1201862, “PubChem BioAssay data set” (2004)
